What was measured:
[1] = target: T1, Alkaline phosphatase, tissue-nonspecific isozyme (Rattus norvegicus) (UniProt P08289); test: (§1) Hepatoprotective activity against alkaline phosphatase (ALP) for thioacetamide-induced toxicity in rats at 6 mg/kg dose for 7 days by ip administration; type: functional, organism-based; parameters: dose 6 mg/kg
T1 sequence (whole entry): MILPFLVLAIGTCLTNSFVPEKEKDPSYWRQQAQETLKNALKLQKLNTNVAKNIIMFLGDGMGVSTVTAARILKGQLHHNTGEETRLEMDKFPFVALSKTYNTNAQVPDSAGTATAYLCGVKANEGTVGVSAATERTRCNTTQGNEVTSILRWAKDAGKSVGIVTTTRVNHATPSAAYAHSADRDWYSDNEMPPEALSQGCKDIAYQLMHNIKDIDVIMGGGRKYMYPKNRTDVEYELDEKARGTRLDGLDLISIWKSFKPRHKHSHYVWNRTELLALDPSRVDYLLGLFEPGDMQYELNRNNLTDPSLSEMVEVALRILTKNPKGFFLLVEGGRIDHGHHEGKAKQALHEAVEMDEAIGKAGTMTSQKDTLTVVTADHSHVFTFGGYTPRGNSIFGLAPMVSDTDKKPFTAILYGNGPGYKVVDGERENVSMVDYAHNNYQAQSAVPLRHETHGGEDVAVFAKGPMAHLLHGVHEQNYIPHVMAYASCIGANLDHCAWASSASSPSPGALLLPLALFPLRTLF

[2] = Hepatoprotective activity against glutamate oxaloacetate transaminase (GOT) for thioacetamide-induced toxicity in rats at 6 mg/kg dose for 7 days by ip administration; type: functional
[3] = target: T2, Alanine aminotransferase 1 (Rattus norvegicus) (UniProt P25409); test: (§2) Hepatoprotective activity against glutamate pyruvate transaminase (GTP) for thioacetamide-induced toxicity in rats at 6 mg/kg dose for 7 days by ip administration; type: functional, organism-based; parameters: dose 6 mg/kg
T2 sequence (whole entry): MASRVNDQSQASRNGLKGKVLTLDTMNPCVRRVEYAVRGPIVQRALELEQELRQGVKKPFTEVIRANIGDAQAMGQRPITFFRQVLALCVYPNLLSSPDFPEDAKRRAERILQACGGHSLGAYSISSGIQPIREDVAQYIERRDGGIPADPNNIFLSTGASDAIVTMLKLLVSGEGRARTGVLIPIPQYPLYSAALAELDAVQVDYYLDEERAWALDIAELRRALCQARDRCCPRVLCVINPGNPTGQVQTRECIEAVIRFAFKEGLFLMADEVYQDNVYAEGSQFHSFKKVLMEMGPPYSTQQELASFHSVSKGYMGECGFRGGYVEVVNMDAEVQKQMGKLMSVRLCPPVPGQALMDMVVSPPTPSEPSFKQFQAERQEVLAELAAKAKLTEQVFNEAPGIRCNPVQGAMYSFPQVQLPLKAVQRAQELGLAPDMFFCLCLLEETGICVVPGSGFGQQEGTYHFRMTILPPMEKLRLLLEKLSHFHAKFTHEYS

[4] = test system: Rattus norvegicus; test: Hepatoprotective activity against bilirubin for thioacetamide-induced toxicity in rats at 6 mg/kg dose for 7 days by ip administration; type: functional
[5] = test system: Rattus norvegicus; test: Effective dose administered perorally in rats in various models of liver injuries; type: functional
[6] = Lethal dose administered perorally in rats in various models of liver injuries; type: toxicity; conditions: rat, in vivo, po
[7] = target: Alkaline phosphatase, tissue-nonspecific isozyme (Rattus norvegicus) (UniProt P08289); test: as §1; type: functional, organism-based; parameters: dose 6 mg/kg; remark: listed apart in the source
[8] = target: Alanine aminotransferase 1 (Rattus norvegicus) (UniProt P25409); test: as §2; type: functional, organism-based; parameters: dose 6 mg/kg; remark: listed apart in the source

Row | Molecule | Protection [1] | Protection ([2]; route intraperitoneal) | Protection [3] | Protection ([4]; route intraperitoneal) | ED [5] | LD50 [6] | Protection [7] | Protection [2] | Protection [8] | Protection [4]
1 | N#Cc1c(N)oc(-c2ccccc2)n/c1=N\N | 12% | 17% | 19% | 0% |  |  |  |  |  | 
2 | COc1ccn(C)c(=O)c1C#N [RICININE] |  |  |  |  | 6 mg/kg | 80 mg/kg |  |  |  | 
3 | CCOC(=O)c1c(SC)nc(C(F)(F)F)oc1=N | 28% | 66% | 54% | 14% |  |  |  |  |  | 
4 | CCOC(=O)c1c(SC)nc(-c2ccccc2)oc1=N | 41% | 33% | 39% | 33% |  |  |  |  |  | 
5 | SILYMARIN |  |  |  |  |  |  | 47% | 50.1% | 47.2% | 61%
6 | CSc1nc(-c2ccccc2)oc(=N)c1C#N | 30% | 26% | 19% | 19% |  |  |  |  |  | 
7 | CCOC(=O)c1c(SC)nc(C)oc1=N | 36% | 26% | 29% | 11% |  |  |  |  |  | 

— ChEMBL document CHEMBL1128863, “6-Imino-1,3-oxazines: a new class of hepatoprotectants” (Bioorg Med Chem Lett, 1995)
